We go through 14 molecules from patent US6130243A, “1,4-benzodioxin derivatives” (Nisshin Flour Milling Co., Ltd., priority 1995, dated 2000).

For experiment [1] the following is noted: in vivo; cited from earlier work.
The target of experiment [2] is T1, β3 (Rattus norvegicus, UniProt P26255).
T1 construct: determined by their activity to stimulate adipocyte lipolysis; from tissue; host or cells: adipocytes isolated with collagenase from rat epididymal fat pads
The settings on record: Nature, Vol. 309, 163, 1984; cited from earlier work.

In experiment [3] the test system is animal models of type II diabetes. The settings on record: in vivo; cited from earlier work.
In experiment [4] the test system is β1 or β2. The settings on record: thought to cause side-effects; cited from earlier work.
Experiment [5] has as its system β3. Particulars: cited from earlier work.
The target in experiment [6] is T1, β3. The experiment is described as follows: β3 agonisitic activity in rats (stimulation of adipocyte lipolysis, rat epididymal fat pads). It is filed as cell-based. The settings on record: rat adipocytes, 37° C., 120 minutes; EC50 relative to compound's own maximum rate of lipolysis; hydrochloride; read-out: Lipolysis Molar EC50 value. The protocol: β3 agonisitic activity in rats
The β3 agonisitic effect of the compounds of the present invention was determined by their activity to stimulate adipocyte lipolysis. Rat epididymal fat pads were excised and placed in a buffer containing the following composition: 130 mM sodium chloride, 4.7 mM potassium chloride, 1.25 mM magnesium sulfate, 2.8 mM calcium chloride, 10 mM HEPES, 2.5 mM sodium dihydrogenphosphate, 1 g/l glucose and 1% fatty acid-free serum albumin (pH 7.6). All the following procedures were carried out in the above-mentioned buffer. 5 g of a tissue was transferred to a plastic bottle with 10 ml of the buffer solution in which 0.1% collagenase (available from Worthington Biochemical corporation) was added.
The tissue was incubated at 37° C. for about 75 minutes with gentle shaking. After the cell suspension was filtered through nylon meshes (No. 100), the cells were washed three times with two volumes of the buffer, and it was again filtered through nylon meshes. The volume was adjusted with the buffer so that the adipocyte was brought to 20% volume. A 0.1 ml aliquot of the cell suspension was added to plastic test tubes with 0.3 ml of the buffer containing vehicle or compound. The cells were incubated at 37° C. for 120 minutes with gentle shaking. The reaction solution (0.3 ml) was transferred to a centrifuge tube with […] of silicone oil (specific gravity 0.96, available from Shinetsu Chemical Industry), centrifuged at 18,500×g for one minute, and the reaction was stopped by removing the adipocyte from the buffer.
The amount of glycerol generated from the hydrolysis of triglycerides in the buffer was determined by a method using glycerol-3-phosphate oxidase/p-chlorophenol. […] of the buffer was added to a 96-well plate which contained 0.2 ml of an assay mixture having the following composition: 50 mM Tris (pH 7.5), 5.4 mM p-chlorophenol, 250 mg/ml adenosine-5'-triphosphate disodium, 150 mg 4-aminoantipyrine, 250 U/l glycerol kinase, 500 U/l glycerol-3-phosphate oxidase, 1250 U/l horseradish peroxidase. The plate was incubated at 37° C. for 15 minutes, and then an absorbance at 505 nm was determined. The molar EC50 value is the molar concentration of compound that gives 50% of that compound's own maximum rate of lipolysis.

In experiment [7] the target is T2, human β3 receptor (Homo sapiens, UniProt P13945).
T2 construct: The human neuroblastoma cells (SK-N-MC) was available from American Type Culture Collection (HTB 10); host or cells: SK-N-MC human neuroblastoma cells
The experiment is described as follows: β3 agonistic activity on human β3 receptor (cAMP production in SK-N-MC human neuroblastoma cells). It is filed as cell-based. Particulars: 0.5 h, 10^-6 M, 37° C., 30 minutes, vs maximum of isopreterenol at 10^-6 M, hydrochloride, read-out: Ability of cAMP production at 10^-6 M, % (vs. Isopreterenol (ISP)). Here is the method:
β3 agonistic activity on human β3 receptor
The β3 agonistic activity of the compounds was determined by their abilities to stimulate the intracellular cAMP production of human neuroblast. The human neuroblastoma cells (SK-N-MC) was available from American Type Culture Collection (HTB 10), and the cells were cultured under the atmosphere of 5% CO2 at 37° C. on a 12-well plate in Dulbeccos' modified Eagle's medium containig 10% fetal calf serum. The SK-N-MC cells on reaching semi-confluence were washed twice with 1 ml of Hank's balanced salt solution (HBSS). After the cells were treated with 0.8 ml of HBSS containing 0.25 mM isobutylmethyl-xanthine at room temperature for 5 minutes, 0.1 ml of a test solution was added. Further, after incubation at 37° C. for 30 minutes, the reaction solution was aspirated, and washed twice with 2 ml of an ice-cooled phosphate-buffered saline (PBS). The cells were disrupted with 5 mM Tris buffer (pH 7.4) containing 2 mM EDTA, centrifuged at 18,500×g for one minute, and cAMP concentration in the supernatant was determined by EIA kit (available from Amersham). The ability of cAMP production was determined as a percentage of the compound to maximum activity of cAMP production of isopreterenol at 10^-6 M concentration (Proc. Natl. Acad. Sci. USA, 90, 3665, 1993).

The subject of experiment [8] is male KKAy mice with hyperglycemia. The experiment is described as follows: Anti-hyperglycemic activity in male KKAy mice. Type of experiment: in vivo, mouse. The settings on record: 1 mg/kg, orally for 4 days, measured on 5th day; hydrochloride. The protocol:
The anti-hyperglycemic effect of the present compounds was determined using male KKAy mice with hyperglycemia of 300 mg/dl or more. The compound was orally administrated successively to the hyperglycemic mice for 4 days, and the blood glucose level was measured on the 5th day. The activity of the compounds was compared in terms of percent reduction in blood glucose level (a percentage of the blood glucose level after administration to that before administration). The measurement of blood glucose level was made by the method in which tail vein of mice was dissected with a scalpel and the blood was dropped onto an electrode of glucose sensor (Touekou Super, available from Kodama).

Each structure is given as a SMILES string. Counter-ions that a name gives are not always drawn.

T1 sequence (P26255 whole entry): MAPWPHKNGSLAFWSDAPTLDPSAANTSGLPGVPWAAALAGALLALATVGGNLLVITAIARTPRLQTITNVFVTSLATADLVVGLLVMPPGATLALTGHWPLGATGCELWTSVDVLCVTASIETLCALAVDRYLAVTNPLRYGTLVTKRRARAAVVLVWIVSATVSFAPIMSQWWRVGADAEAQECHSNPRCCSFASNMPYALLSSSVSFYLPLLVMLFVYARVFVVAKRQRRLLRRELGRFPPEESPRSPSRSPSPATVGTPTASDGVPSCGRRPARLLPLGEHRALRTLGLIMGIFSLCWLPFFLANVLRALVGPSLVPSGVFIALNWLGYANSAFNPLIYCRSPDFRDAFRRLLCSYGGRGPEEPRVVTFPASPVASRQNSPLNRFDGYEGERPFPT
T2 sequence (P13945 whole entry): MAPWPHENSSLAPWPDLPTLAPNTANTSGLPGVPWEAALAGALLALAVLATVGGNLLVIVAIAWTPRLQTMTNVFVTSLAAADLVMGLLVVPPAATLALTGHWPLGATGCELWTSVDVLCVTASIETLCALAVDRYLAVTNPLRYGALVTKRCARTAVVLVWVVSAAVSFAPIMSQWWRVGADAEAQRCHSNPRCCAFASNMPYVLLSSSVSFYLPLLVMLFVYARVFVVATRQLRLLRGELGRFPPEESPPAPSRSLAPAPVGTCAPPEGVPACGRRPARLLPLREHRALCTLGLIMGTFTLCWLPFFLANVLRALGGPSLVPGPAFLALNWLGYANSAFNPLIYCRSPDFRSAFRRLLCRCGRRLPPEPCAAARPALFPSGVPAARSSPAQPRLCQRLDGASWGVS

Take `COC(=O)COc1ccc(C[C@@H](C)NC[C@H](O)c2cccc(Cl)c2)cc1` (relative stereo) [BRL 35135]: in experiment [1], the “anti-obesity activity, in words” value is “anti-obesity activity”. In experiment [2], the “lipolytic activity (β3) in rats, in words” value is “lipolytic activity (β3) in rats”. For the same molecule, in experiment [3], the “anti-hyperglycemic activity, in words” value was “anti-hyperglycemic activity”. Further, in experiment [4], the “β1 or β2 agonistic activity, in words” value is recorded as “has β1 or β2 agonistic activity”. Further, in experiment [5], the “β3 agonistic activity, in words” value was “has β3 agonistic activity”. Take `C[C@H](Cc1ccc(OCC(=O)O)cc1)NC[C@H](O)c1cccc(Cl)c1` (relative stereo) [BRL 37344]: the “anti-obesity activity, in words” value in experiment [1] is recorded as “anti-obesity activity”. For the same molecule, in experiment [3], the “anti-hyperglycemic activity, in words” value was “anti-hyperglycemic activity”. Take `COC(=O)C1COc2cc(CC(C)NCC(O)c3cccc(OC)c3)ccc2O1` (stereo not drawn) [Example 1, 6-{2-[2-Hydroxy-2-(3-methoxyphenyl)ethyl]amino}propyl-2,3-dihydro-1,4-benzodioxin-2-carboxylic acid methyl ester]: the EC50 in experiment [6] worked out at 46 nM. Further, the Emax at 1 µM in experiment [7] came to 21%. The “Percent reduction in blood glucose level, %” value (“Percent reduction … %” for short) in experiment [8] came to 53%.

Consider `COC(=O)C1COc2cc(CC(C)NCC(O)c3cccc(C)c3)ccc2O1` (stereo not drawn) [Example 2, 6-{2-[2-Hydroxy-2-(3-tolyl)ethyl]amino}propyl-2,3-dihydro-1,4-benzodioxin-2-carboxylic acid methyl ester], for which, in experiment [6], the EC50 turned out to be 4 nM. In experiment [7], the Emax at 1 µM was 25%. With `CCOC(=O)C1COc2cc(CC(C)NCC(O)c3ccccc3)ccc2O1` (stereo not drawn) [Example 3, 6-[2-(2-Hydroxy-2-phenylethyl)amino]propyl-2,3-dihydro-1,4-benzodioxin-2-carboxylic acid ethyl ester], in experiment [6], the EC50 is 9 nM. For the same molecule, in experiment [8], the “Percent reduction … %” value was found to be 63%. As for `CCOC(=O)C1COc2ccc(CC(C)NCC(O)c3ccccc3)cc2O1` (stereo not drawn) [Example 4, 7-[2-(2-Hydroxy-2-phenylethyl)amino]propyl-2,3-dihydro-1,4-benzodioxin-2-carboxylic acid ethyl ester], in experiment [6], the EC50 is 56 nM.

In the case of `COC(=O)C1COc2cc(CC(C)NCC(O)c3ccc4c(c3)OCO4)ccc2O1` (stereo not drawn) [Example 5, 6-[2-(2-Hydroxy-2-piperonylethyl)amino]propyl-2,3-dihydro-1,4-benzodioxin-2-carboxylic acid methyl ester], the EC50 in experiment [6] worked out at 100 nM. On to `COC(=O)C1COc2cc(CC(C)NCC(O)c3cccc(Cl)c3)ccc2O1` (stereo not drawn) [Example 10, 6-{2-[2-(3-Chlorophenyl)-2-hydroxyethyl]amino}propyl-2,3-dihydro-1,4-benzodioxin-2-carboxylic acid methyl ester], for which the Emax at 1 µM in experiment [7] amounted to 43%. In addition, the “Percent reduction … %” value in experiment [8] is recorded as 48%.

Regarding `COC(=O)C1COc2cc(CC(C)NCC(O)c3cccc(C(F)(F)F)c3)ccc2O1` (stereo not drawn) [Example 11, 6-{2-[2-Hydroxy-2-(3-trifluoromethylphenyl)ethyl]amino}propyl-2,3-dihydro-1,4-benzodioxin-2-carboxylic acid methyl ester], the EC50 in experiment [6] was found to be 2.4 nM.

Turning to `COC(=O)C1COc2cc(CC(C)NCC(O)c3ccc(F)cc3)ccc2O1` (stereo not drawn) [Example 12, 6-{2-[2-Hydroxy-2-(4-fluorophenyl)ethyl]amino}propyl-2,3-dihydro-1,4-benzodioxin-2-carboxylic acid methyl ester], the EC50 in experiment [6] was determined as 26 nM. Besides, the Emax at 1 µM in experiment [7] is 29%. On to `CCOC(=O)[C@H]1COc2cc(C[C@@H](C)NC[C@H](O)c3cccc(Cl)c3)ccc2O1` [Example 28, (2R,2'R,2"R)-6-{2-[2-(3-Chlorophenyl)-2-hydroxyethyl]amino}propyl-2,3-dihydro-1,4-benzodioxin-2-carboxylic acid ethyl ester hydrochloride], for which the EC50 in experiment [6] is 0.1 nM. The “Percent reduction … %” value in experiment [8] was determined as 42%. For the molecule `CCOC(=O)[C@H]1COc2cc(C[C@H](C)NC[C@H](O)c3cccc(Cl)c3)ccc2O1` [Example 29, (2R,2'S,2"R)-6-{2-[2-(3-Chlorophenyl)-2-hydroxyethyl]amino}propyl-2,3-dihydro-1,4-benzodioxin-2-carboxylic acid ethyl ester], the EC50 in experiment [6] was 1.7 nM. Also, the “Percent reduction … %” value in experiment [8] turned out to be 54%.

`CCOC(=O)[C@@H]1COc2cc(C[C@@H](C)NC[C@H](O)c3cccc(Cl)c3)ccc2O1` [Example 30, (2S,2'R,2"R)-6-{2-[2-(3-Chlorophenyl)-2-hydroxyethyl]amino}propyl-2,3-dihydro-1,4-benzodioxin-2-carboxylic acid ethyl ester]: the EC50 in experiment [6] is 16 nM. On to `CCOC(=O)[C@@H]1COc2cc(C[C@H](C)NC[C@H](O)c3cccc(Cl)c3)ccc2O1` [Example 31, (2S,2'S,2"R)-6-{2-[2-(3-Chlorophenyl)-2-hydroxyethyl]amino}propyl-2,3-dihydro-1,4-benzodioxin-2-carboxylic acid ethyl ester], for which the EC50 in experiment [6] worked out at 100 nM.
